Measured values taken from patent EP0052564A1, “Derivatives of 2-thiazolyl-oxamic acid substituted in position 4 by a thienyl or furyl radical, their preparation and use as pharmaceutical preparations” (PIERRE FABRE S.A., priority 1980, dated 1982).

Experiment: Solubility (in water, ethanol, methyl pyrrolidone)
Type: physicochemical
Conditions: for Solubilités : dans la méthyl pyrrolidone: methyl pyrrolidone; for Solubilités : dans l'eau: water; for Solubilités : dans l'éthanol: ethanol

Compound | Solubilités : dans la méthyl pyrrolidone | Solubilités : dans l'eau | Solubilités : dans l'éthanol
O=C(O)C(=O)Nc1nc(-c2cccs2)cs1 [Exemple 2, Acide (α thienyl-4 thiazolyl-2) oxamique] | 50% | insoluble | 
(α thienyl-4 thiazolyl-2) oxamate d'éthanolamine [Exemple 5] | 15% | insoluble | 
O=C(O)C(=O)Nc1nc(-c2cccs2)cs1 [Exemple 3, (α thienyl-4 thiazolyl-2) oxamate de sodium] | 15% | insoluble | 
CCOC(=O)C(=O)Nc1nc(-c2ccco2)cs1 [Exemple 7, (α furyl-4 thiazolyl-2) oxamate d'éthyle] | 50% | insoluble | 3%
CCOC(=O)C(=O)Nc1nc(-c2ccsc2)cs1 [Exemple 6, ( β thienyl-4 thiazolyl-2) oxamate d'éthyle] | 50% | insoluble | 
(α thienyl-4 thiazolyl-2) oxamate de zinc [Exemple 4] | 50% | insoluble | 
CCOC(=O)C(=O)Nc1nc(-c2cccs2)cs1 [Exemple 1, (α thienyl-4 thiazolyl-2) oxamate d'éthyle] | 50% | insoluble | 1%
O=C(O)C(=O)Nc1nc(-c2ccco2)cs1 [Exemple 8, Acide (α furyl-4 thiazolyl-2) oxamique] | 25% | insoluble | 
